What all share (type): in vivo, human
Holding throughout (settings): efficacy grade

Assay [1] deals with Aging related changes of skin, nail and hair. Kind of assay: Summary of test results in volunteer subjects: aging related changes. The source says: (§1) In one embodiment, a composition for topical application to test its therapeutic effect was formulated by dissolving a bioactive dipeptide derivative of the present invention in a solution prepared from 40 parts water, 40 parts ethanol and 20 parts propylene glycol by volume (WEP442). In another embodiment, a composition was formulated by dissolving a bioactive dipeptide derivative of the present invention in a non-aqueous solution prepared from 80 parts ethanol and 20 parts propylene glycol by volume (EP82). In yet another embodiment, a composition was formulated first by dissolving a bioactive dipeptide derivative of the present invention in a solution prepared from 80 parts water and 20 parts propylene glycol by volume (WP82), and the solution thus prepared was mixed with an oil-in-water emulsion or cream. In another embodiment, the volunteer subject topically applied the test compositions containing N-acyldipeptide derivatives of the present invention on involved skin or lesions once or twice daily for several weeks or until the involved lesions completely cleared and clinically changed to normal skin. As a control study, the subject also topically applied a vehicle control composition on the involved skin or lesions twice daily for the same period. In yet another embodiment, the volunteer subject topically applied once or twice daily the test compositions containing N-acyldipeptide derivatives of the present invention on the skin site above arthritic joints or painful muscles to provide therapeutic effects for the systemic disorders via topical administration. Some test results are summarized as follows. AG: Aging related changes of skin, nail and hair

Assay [2] deals with Deranged immune disorders and inflammation. Briefly: Summary of test results in volunteer subjects: deranged immune disorders and inflammation.
Source text: as §1, with “DI: Deranged immune disorders” for “AG: Aging related changes of skin, nail”, “inflammation” for “hair”

Assay [3] relates to Disturbed keratinization. Briefly: Summary of test results in volunteer subjects: disturbed keratinization.
Source text: as §1, with “DK: Disturbed keratinization” for “AG: Aging related changes of skin, nail and hair”

Assay [4] relates to Nerve disorders. Kind of assay: Summary of test results in volunteer subjects: nerve disorders.
Source text: as §1, with “ND: Nerve disorders” for “AG: Aging related changes of skin, nail and hair”

Molecules are shown by their SMILES. Peptide text beside a SMILES is read from it.

Consider `CC[C@H](C)[C@H](NC(C)=O)C(=O)N[C@@H](C)C(N)=O` [N-Ac-L-Ile-L-Ala-NH2] (Ac-Ile-Ala-NH2), for which the AG in assay [1] is 2+ (2+: 50% Efficacy). In addition, the DI in assay [2] was 4+ (4+: 95-100% Efficacy). Further, the DK in assay [3] is reported as 2+ (2+: 50% Efficacy). For the same compound, in assay [4], the ND is recorded as 4+ (4+: 95-100% Efficacy).

On to `CC[C@H](C)[C@H](NC(C)=O)C(=O)N[C@@H](C)C(=O)O` [N-Ac-L-Ile-L-Ala-OH] (Ac-Ile-Ala-OH), for which, in assay [1], the AG is 2+ (2+: 50% Efficacy). In addition, the DI in assay [2] is 2+ (2+: 50% Efficacy). In addition, in assay [3], the DK is recorded as 2+ (2+: 50% Efficacy). Also, the ND in assay [4] was 2+ (2+: 50% Efficacy).

`CC[C@H](C)[C@H](NC(=O)[C@@H](NC(C)=O)[C@@H](C)CC)C(N)=O` [N-Ac-L-Ile-L-Ile-NH2] (Ac-Ile-Ile-NH2): the AG in assay [1] was 2+ (2+: 50% Efficacy). The DI in assay [2] was 3+ (3+: 75% Efficacy). In assay [3], the DK is 3+ (3+: 75% Efficacy). Besides, the ND in assay [4] was 4+ (4+: 95-100% Efficacy).

For the compound `CC[C@H](C)[C@H](NC(C)=O)C(=O)N[C@@H](Cc1ccc(O)cc1)C(N)=O` [N-Ac-L-Ile-L-Tyr-NH2] (Ac-Ile-Tyr-NH2), in assay [1], the AG was 2+ (2+: 50% Efficacy). For the same compound, the DI in assay [2] is on record as 2+ (2+: 50% Efficacy). In addition, the DK in assay [3] is recorded as 2+ (2+: 50% Efficacy). In assay [4], the ND is listed as 2+ (2+: 50% Efficacy).

On to `CC(=O)N[C@@H](CC(C)C)C(=O)NCC(=O)O` [N-Ac-L-Leu-Gly-OH] (Ac-Leu-Gly-OH), for which the AG in assay [1] was 2+ (2+: 50% Efficacy). The DI in assay [2] was 3+ (3+: 75% Efficacy). In assay [3], the DK is reported as 2+ (2+: 50% Efficacy). Also, the ND in assay [4] is recorded as 3+ (3+: 75% Efficacy).

For the compound `CC(=O)N[C@@H](CC(C)C)C(=O)N[C@@H](C)C(N)=O` [N-Ac-L-Leu-L-Ala-NH2] (Ac-Leu-Ala-NH2), the AG in assay [1] is recorded as 3+ (3+: 75% Efficacy). Besides, in assay [2], the DI is on record as 4+ (4+: 95-100% Efficacy). Moreover, the DK in assay [3] is on record as 3+ (3+: 75% Efficacy). The ND in assay [4] was 4+ (4+: 95-100% Efficacy).

`CC(=O)N[C@@H](CC(C)C)C(=O)N[C@@H](C)C(=O)O` [N-Ac-L-Leu-L-Ala-OH] (Ac-Leu-Ala-OH): in assay [1], the AG is 2+ (2+: 50% Efficacy). Also, the DI in assay [2] is 3+ (3+: 75% Efficacy). Further, in assay [3], the DK is on record as 2+ (2+: 50% Efficacy). Besides, in assay [4], the ND is given as 3+ (3+: 75% Efficacy).

For `CC(=O)N[C@@H](CC(C)C)C(=O)N[C@@H](CC(C)C)C(N)=O` [N-Ac-L-Leu-L-Leu-NH2], the AG in assay [1] is recorded as 2+ (2+: 50% Efficacy). For the same compound, the DI in assay [2] is on record as 2+ (2+: 50% Efficacy). For the same compound, the DK in assay [3] is 2+ (2+: 50% Efficacy). For the same compound, the ND in assay [4] is listed as 2+ (2+: 50% Efficacy).

`CC(=O)N[C@@H](CC(C)C)C(=O)N[C@@H](Cc1ccc(O)cc1)C(N)=O` [N-Ac-L-Leu-L-Tyr-NH2] (Ac-Leu-Tyr-NH2): in assay [1], the AG is 2+ (2+: 50% Efficacy). In addition, the DI in assay [2] is listed as 2+ (2+: 50% Efficacy). In assay [3], the DK is listed as 2+ (2+: 50% Efficacy). Moreover, the ND in assay [4] is listed as 2+ (2+: 50% Efficacy).

As for `CC(=O)N[C@@H](Cc1ccccc1)C(=O)N[C@@H](Cc1ccccc1)C(N)=O` [N-Ac-L-Phe-L-Phe-NH2] (Ac-Phe-Phe-NH2), in assay [1], the AG is given as 2+ (2+: 50% Efficacy). Also, in assay [2], the DI was 2+ (2+: 50% Efficacy). The DK in assay [3] was 2+ (2+: 50% Efficacy). Besides, the ND in assay [4] is 2+ (2+: 50% Efficacy).

As to `CC(=O)N[C@@H](CO)C(=O)NCC(N)=O` [N-Ac-L-Ser-Gly-NH2] (Ac-Ser-Gly-NH2), the AG in assay [1] was 2+ (2+: 50% Efficacy). In assay [2], the DI was 2+ (2+: 50% Efficacy). The DK in assay [3] is listed as 2+ (2+: 50% Efficacy). Also, the ND in assay [4] is 2+ (2+: 50% Efficacy).

For the compound `CC(=O)N[C@@H](Cc1c[nH]c2ccccc12)C(=O)N[C@@H](Cc1c[nH]c2ccccc12)C(N)=O` [N-Ac-L-Trp-L-Trp-NH2] (Ac-Trp-Trp-NH2), the AG in assay [1] is recorded as 2+ (2+: 50% Efficacy). The DI in assay [2] is listed as 2+ (2+: 50% Efficacy). The DK in assay [3] is listed as 2+ (2+: 50% Efficacy). In assay [4], the ND is on record as 2+ (2+: 50% Efficacy).

Take `CC(=O)N[C@@H](Cc1ccc(O)cc1)C(=O)NCC(N)=O` [N-Ac-L-Tyr-Gly-NH2]: in assay [1], the AG is listed as 2+ (2+: 50% Efficacy). Besides, in assay [2], the DI is 2+ (2+: 50% Efficacy). Besides, the DK in assay [3] was 2+ (2+: 50% Efficacy). In assay [4], the ND is reported as 2+ (2+: 50% Efficacy).

For `CCOC(=O)[C@H](Cc1ccc(O)cc1)NC(=O)[C@H](Cc1ccc(O)cc1)NC(C)=O` [N-Ac-L-Tyr-L-Tyr-OEt] (HELM PEPTIDE1{[ac].Y.Y.[CCO[*:1]]}$$$$V2.0), in assay [1], the AG is 2+ (2+: 50% Efficacy). In addition, the DI in assay [2] was 2+ (2+: 50% Efficacy). In addition, the DK in assay [3] was 2+ (2+: 50% Efficacy). Also, the ND in assay [4] is listed as 2+ (2+: 50% Efficacy).

`CC(=O)N[C@H](C(=O)NCC(N)=O)C(C)C` [N-Ac-L-Val-Gly-NH2] (Ac-Val-Gly-NH2): in assay [1], the AG is 2+ (2+: 50% Efficacy). Moreover, the DI in assay [2] is given as 4+ (4+: 95-100% Efficacy). Also, the DK in assay [3] was 2+ (2+: 50% Efficacy). The ND in assay [4] was 4+ (4+: 95-100% Efficacy).

Take `CC(=O)N[C@H](C(=O)NCC(=O)O)C(C)C` [N-Ac-L-Val-Gly-OH] (Ac-Val-Gly-OH): the AG in assay [1] is 2+ (2+: 50% Efficacy). Also, the DI in assay [2] is on record as 3+ (3+: 75% Efficacy). Also, the DK in assay [3] is 2+ (2+: 50% Efficacy). In addition, in assay [4], the ND is listed as 4+ (4+: 95-100% Efficacy).

On to `CC(=O)N[C@H](C(=O)N[C@@H](C)C(=O)O)C(C)C` [N-Ac-L-Val-L-Ala-OH] (Ac-Val-Ala-OH), for which the AG in assay [1] is given as 2+ (2+: 50% Efficacy). The DI in assay [2] is 3+ (3+: 75% Efficacy). The DK in assay [3] is reported as 2+ (2+: 50% Efficacy). For the same compound, the ND in assay [4] is 4+ (4+: 95-100% Efficacy).

On to `CC(=O)N[C@H](C(=O)N[C@@H](Cc1ccc(O)cc1)C(N)=O)C(C)C` [N-Ac-L-Val-L-Tyr-NH2] (Ac-Val-Tyr-NH2), for which the AG in assay [1] is 2+ (2+: 50% Efficacy). The DI in assay [2] was 2+ (2+: 50% Efficacy). Moreover, in assay [3], the DK is recorded as 2+ (2+: 50% Efficacy). Also, the ND in assay [4] is reported as 2+ (2+: 50% Efficacy).

`CC(=O)NCCC(=O)NCC(N)=O` [N-Ac-β-Ala-Gly-NH2]: in assay [1], the AG was 2+ (2+: 50% Efficacy). The DI in assay [2] is recorded as 2+ (2+: 50% Efficacy). The DK in assay [3] is given as 2+ (2+: 50% Efficacy). The ND in assay [4] is on record as 2+ (2+: 50% Efficacy).

Values taken from US11224565B2, “N-acyldipeptide derivatives and their uses” (NeoStrata Company, Inc., priority 2011, dated 2022).
